Source: PubChem BioAssay AID248 (DTP/NCI, 2004)
Several values for one entry are separate records, joined by “and”; a condition that tells them apart may be missing. Equal values may be shown once. Toxic doses and inconclusive results are not listed. Rule as the data show it: active = T/C of 150% or more; inactive = T/C below 125%.

Tested on: L1210 leukemia ip in BDF1 mice, survival T/C
Assay: NCI In Vivo Anticancer Drug Screen. Data for tumor model L1210 Leukemia (intraperitoneal) in B6D2F1 (BDF1) mice
Conditions: endpoint: mean survival time, higher = longer survival
Method in brief: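 Transplanted-tumor mice were given test agent; controls received vehicle only. Survival readings from the two groups were divided (treated over control).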

[1] = dose: 100.0 mg/kg/injection, schedule: Q01DX001 (ip), vehicle: saline
[2] = dose: 200.0 mg/kg/injection, schedule: Q01DX001 (ip), vehicle: saline
[3] = dose: 400.0 mg/kg/injection, schedule: Q01DX001 (ip), vehicle: saline
[4] = dose: 12.5 mg/kg/injection, schedule: Q04DX002 (ip), vehicle: Klucel (hydroxypropylcellulose) (HPC)
[5] = dose: 25.0 mg/kg/injection, schedule: Q04DX002 (ip), vehicle: Klucel (hydroxypropylcellulose) (HPC)
[6] = dose: 12.5 mg/kg/injection, schedule: Q01DX009 (ip), vehicle: saline with Tween-80
[7] = dose: 25.0 mg/kg/injection, schedule: Q01DX009 (ip), vehicle: saline with Tween-80
[8] = dose: 100.0 mg/kg/injection, schedule: Q01DX009 (ip), vehicle: saline with Tween-80
[9] = dose: 100.0 mg/kg/injection, schedule: Q04DX003 (ip), vehicle: Klucel (hydroxypropylcellulose) (HPC)

Measured: T/C

CCCCSc1ncc(C)c(N(C)C)n1
inactive: dose: 25.0 mg/kg/injection, schedule: Q01DX Z (ip), vehicle: methylcellulose (MC) 92 % of control | dose: 50.0 mg/kg/injection, schedule: Q01DX Z (ip), vehicle: methylcellulose (MC) 89 % of control

Cc1nc2n[nH]c(N)c2nc1C
inactive: dose: 100.0 mg/kg/injection, schedule: Q04DX003 (ip), vehicle: saline 98 % of control | dose: 200.0 mg/kg/injection, schedule: Q04DX003 (ip), vehicle: saline 91 % of control | dose: 400.0 mg/kg/injection, schedule: Q04DX003 (ip), vehicle: saline 88 % of control

CCCCc1cc([N+](=O)[O-])cc([N+](=O)[O-])c1OCN1C(=O)C2C3CCC(O3)C2C1=O (centres undefined)
inactive: dose: 100.0 mg/kg/injection, schedule: Q04DX002 (ip), vehicle: Klucel (hydroxypropylcellulose) (HPC) 113 % of control | dose: 200.0 mg/kg/injection, schedule: Q04DX002 (ip), vehicle: Klucel (hydroxypropylcellulose) (HPC) 98 % of control | dose: 400.0 mg/kg/injection, schedule: Q04DX002 (ip), vehicle: Klucel (hydroxypropylcellulose) (HPC) 106 % of control

O=c1cc(/C=N\Nc2ccccc2)[nH]c(=O)[nH]1
inactive: dose: 50.0 mg/kg/injection, schedule: Q01DX001 (ip), vehicle: saline 93 % of control | [1] 96 % of control | [2] 93 % of control | [3] 96 % of control

O=S1(=O)CC(Br)C1
inactive: [4] 86 % of control | dose: 25.0 mg/kg/injection, schedule: Q01DX009 (ip), vehicle: Klucel (hydroxypropylcellulose) (HPC) 96 % of control | [5] 93 % of control | dose: 50.0 mg/kg/injection, schedule: Q01DX009 (ip), vehicle: Klucel (hydroxypropylcellulose) (HPC) 96 % of control | dose: 50.0 mg/kg/injection, schedule: Q04DX002 (ip), vehicle: Klucel (hydroxypropylcellulose) (HPC) 109 % of control

CCC(CC)NCC(C)O (centres undefined)
inactive: dose: 75.0 mg/kg/injection, schedule: Q01DX001 (ip), vehicle: saline 105 % of control | dose: 150.0 mg/kg/injection, schedule: Q01DX001 (ip), vehicle: saline 108 % of control | dose: 300.0 mg/kg/injection, schedule: Q01DX001 (ip), vehicle: saline 102 % of control

O=C1NC(=S)SC1C(Cc1ccccc1)Cc1ccccc1 (centres undefined)
inactive: [1] 97 % of control | [2] 97 % of control | [3] 101 % of control

N#CC(C#N)=Cc1ccc([N+](=O)[O-])s1
inactive: [4] 96 % of control | [5] 100 % of control

CCOC(=O)NNC(=O)OCC
inactive: [6] 100 % of control | [7] 97 % of control | dose: 25.0 mg/kg/injection, schedule: Q04DX003 (ip), vehicle: Klucel (hydroxypropylcellulose) (HPC) 97 % of control | dose: 50.0 mg/kg/injection, schedule: Q01DX009 (ip), vehicle: saline with Tween-80 96 % of control and 86 % of control | dose: 50.0 mg/kg/injection, schedule: Q04DX003 (ip), vehicle: Klucel (hydroxypropylcellulose) (HPC) 98 % of control | dose: 75.0 mg/kg/injection, schedule: Q01DX001 (ip), vehicle: acetone 97 % of control | [8] 92 % of control | [9] 91 % of control | dose: 150.0 mg/kg/injection, schedule: Q01DX001 (ip), vehicle: acetone 108 % of control

CC(=O)NC1C(OCc2ccccc2)OC(COCc2ccccc2)C(OCc2ccccc2)C1OCc1ccccc1 (centres undefined)
inactive: dose: 100.0 mg/kg/injection, schedule: Q01DX001 (ip), vehicle: saline with Tween-80 86 % of control | dose: 200.0 mg/kg/injection, schedule: Q01DX001 (ip), vehicle: saline with Tween-80 94 % of control | dose: 400.0 mg/kg/injection, schedule: Q01DX001 (ip), vehicle: saline with Tween-80 94 % of control

CNC(=O)Oc1cccc(NC(=O)OC(C)C)c1
inactive: [8] 97 % of control | dose: 200.0 mg/kg/injection, schedule: Q01DX009 (ip), vehicle: saline with Tween-80 98 % of control | dose: 400.0 mg/kg/injection, schedule: Q01DX009 (ip), vehicle: saline with Tween-80 92 % of control

CCOc1ccc(C(=O)OCCCl)cc1
inactive: dose: 100.0 mg/kg/injection, schedule: Q04DX003 (ip), vehicle: saline with Tween-80 110 % of control | dose: 200.0 mg/kg/injection, schedule: Q04DX003 (ip), vehicle: saline with Tween-80 109 % of control | dose: 400.0 mg/kg/injection, schedule: Q04DX003 (ip), vehicle: saline with Tween-80 109 % of control

CC(C)(O)/C=C/C(=O)[C@](C)(O)[C@H]1[C@H](O)C[C@@]2(C)[C@@H]3CC=C4[C@@H](C[C@H](O)C(=O)C4(C)C)[C@]3(C)C(=O)C[C@]12C
inactive: dose: 0.5 mg/kg/injection, schedule: Q01DX001 (sc), vehicle: steriod suspending solution 102 % of control | dose: 1.0 mg/kg/injection, schedule: Q01DX001 (sc), vehicle: steriod suspending solution 98 % of control

CCCCC(CCCC)NC(C)COC(=O)c1ccc(N)cc1 (centres undefined)
inactive: dose: 75.0 mg/kg/injection, schedule: Q01DX001 (ip), vehicle: carboxymethylcellulose (CMC) 104 % of control | dose: 150.0 mg/kg/injection, schedule: Q01DX001 (ip), vehicle: carboxymethylcellulose (CMC) 100 % of control | dose: 300.0 mg/kg/injection, schedule: Q01DX001 (ip), vehicle: carboxymethylcellulose (CMC) 101 % of control

COc1cc2c(c(OC)c1OC)-c1ccc(O)c(=O)cc1[C@@H](NC(C)=O)CC2
inactive: dose: 75.0 mg/kg/injection, schedule: Q01DX001 (ip), vehicle: other 90 % of control | dose: 150.0 mg/kg/injection, schedule: Q01DX001 (ip), vehicle: other 119 % of control

CC12CCCCC1SC(F)(F)C2(F)F (centres undefined)
inactive: [6] 95 % of control | [7] 98 % of control

CC1=Nc2ccccc2/C1=C/c1c(O)[nH]c(=O)[nH]c1=O
inactive: dose: 37.5 mg/kg/injection, schedule: Q01DX Z (ip), vehicle: carboxymethylcellulose (CMC) 103 % of control | dose: 75.0 mg/kg/injection, schedule: Q01DX Z (ip), vehicle: carboxymethylcellulose (CMC) 103 % of control | dose: 150.0 mg/kg/injection, schedule: Q01DX Z (ip), vehicle: carboxymethylcellulose (CMC) 100 % of control | dose: 300.0 mg/kg/injection, schedule: Q01DX Z (ip), vehicle: carboxymethylcellulose (CMC) 103 % of control

CCCCCCCCCCCCCCCCCC(N)=O
inactive: dose: 100.0 mg/kg/injection, schedule: Q01DX009 (ip), vehicle: Klucel (hydroxypropylcellulose) (HPC) 87 % of control | [9] 102 % of control | dose: 200.0 mg/kg/injection, schedule: Q01DX009 (ip), vehicle: Klucel (hydroxypropylcellulose) (HPC) 87 % of control | dose: 200.0 mg/kg/injection, schedule: Q04DX003 (ip), vehicle: Klucel (hydroxypropylcellulose) (HPC) 95 % of control | dose: 400.0 mg/kg/injection, schedule: Q01DX009 (ip), vehicle: Klucel (hydroxypropylcellulose) (HPC) 117 % of control | dose: 400.0 mg/kg/injection, schedule: Q04DX003 (ip), vehicle: Klucel (hydroxypropylcellulose) (HPC) 96 % of control

COc1cc2c(c(OC)c1OC)-c1ccc(OC)c(=O)cc1[C@@H](NC=O)CC2
inactive: dose: 0.35 mg/kg/injection, schedule: Q01DX015 (ip), vehicle: carboxymethylcellulose (CMC) 118 % of control | dose: 0.5 mg/kg/injection, schedule: Q01DX009 (ip), vehicle: Klucel (hydroxypropylcellulose) (HPC) 122 % of control | dose: 0.7 mg/kg/injection, schedule: Q01DX015 (ip), vehicle: carboxymethylcellulose (CMC) 112 % of control | dose: 3.0 mg/kg/injection, schedule: Q01DX015 (ip), vehicle: carboxymethylcellulose (CMC) 90 % of control

CCOC(=O)CCc1c(C)c2cc(C(C)=O)c(O)cc2oc1=O
inactive: dose: 100.0 mg/kg/injection, schedule: Q01DX001 (ip), vehicle: carboxymethylcellulose (CMC) 89 % of control | dose: 200.0 mg/kg/injection, schedule: Q01DX001 (ip), vehicle: carboxymethylcellulose (CMC) 94 % of control | dose: 400.0 mg/kg/injection, schedule: Q01DX001 (ip), vehicle: carboxymethylcellulose (CMC) 103 % of control
